Values after ≈ are worked out from the molar mass of the structure shown.
Experiments:
[1] = species: Canis familiaris; conditions: dog, in vivo, iv
[2] = in vivo; conditions: callithrix, serum, iv
Description: Serum T1/2 in marmosets (IV dose)

[3] = physchem
Description: Dissociation constant (pKa)

[4] = Urinary recovery in marmosets (IV dose); assay type: ADME, organism-based; conditions: callithrix, urine, read-out: Recovery
[5] = species: Homo sapiens; experiment: Compound was tested for serum protein binding in human blood; assay type: functional
[6] = test system: Mus musculus; experiment: Compound was evaluated in vivo for antibacterial activity against Pseudomonas aeruginosa (strain 101010) in mice; assay type: functional; conditions: read-out: PD50
[7] = test system: Enterobacter cloacae; experiment: microbe, parasite or virus in culture
Description: Compound was tested for antimicrobial activity against Enterobacter cloacae constitutive derepressed type I beta-lactamase producer (P99+) strain

[8] = test system: Enterobacter cloacae; experiment: microbe, parasite or virus in culture; remark: listed apart in the source
Description: Compound was tested for antimicrobial activity against Enterobacter cloacae inducible type I beta-lactamase producer (P99-) strain

[9] = test system: Pseudomonas aeruginosa; experiment: microbe, parasite or virus in culture
Description: Compound was tested for antimicrobial activity against Pseudomonas aeruginosa PU21 strain

[10] = test system: Pseudomonas aeruginosa; experiment: microbe, parasite or virus in culture; remark: listed apart in the source
Description: Compound was tested for antimicrobial activity against Pseudomonas aeruginosa constitutive derepressed type I beta-lactamase producer (18SH) strain

[11] = test system: Staphylococcus aureus; experiment: microbe, parasite or virus in culture
Description: Compound was tested for antimicrobial activity against Staphylococcus aureus Oxford strain

[12] = test system: Staphylococcus aureus; experiment: microbe, parasite or virus in culture; remark: listed apart in the source
Description: Compound was tested for antimicrobial activity against Staphylococcus aureus penicillin sensitive Staphylococcus aureus (147N) strain

[13] = test system: Escherichia coli; experiment: microbe, parasite or virus in culture
Description: Compound was tested for antimicrobial activity against Escherichia coli DC0 strain (parent organism)

[14] = test system: Escherichia coli; experiment: microbe, parasite or virus in culture; remark: listed apart in the source
Description: Compound was tested for antimicrobial activity against Escherichia coli DC2 strain (permeability mutant)

Structure (SMILES)	AUC [1]	half-life [2]	pKa [3]	further results
CCOC(=O)c1nc2cc(O)c(O)cc2nc1C(=O)NCC1=C(C(=O)O)N2C(=O)[C@@H](NC(=O)/C(=N\OC(C)(C)C(=O)O)c3csc(N)n3)[C@H]2SC1	287 mg/h/L	4.6 h	6	–
CC(C)(O/N=C(\C(=O)N[C@@H]1C(=O)N2C(C(=O)O)=C(CNC(=O)c3ccc(O)c(O)c3Cl)CS[C@H]12)c1csc(N)n1)C(=O)O	131 mg/h/L	2.9 h	7.65	–
CCn1cc(C(=O)NCC2=C(C(=O)O)N3C(=O)[C@@H](NC(=O)/C(=N\OC(C)(C)C(=O)O)c4csc(N)n4)[C@H]3SC2)c(=O)c2cc(O)c(O)nc21	137.3 mg/h/L	2.8 h	5.6	–
CCN(CC1=C(C(=O)O)N2C(=O)[C@@H](NC(=O)/C(=N\OC(C)(C)C(=O)O)c3csc(N)n3)[C@H]2SC1)C(=O)c1cc(O)c(O)c(C#N)c1	41 mg/h/L	1 h	5.8	–
CC(C)(O/N=C(\C(=O)N[C@@H]1C(=O)N2C(C(=O)O)=C(CNC(=O)c3cc(O)c(O)c(Br)c3)CS[C@H]12)c1csc(N)n1)C(=O)O	137.1 mg/h/L	2.9 h	6.9	dose excreted [4]: 13.9%; Activity [5]: 99.2%; ED50 [6]: 24 µg/kg; MIC [7]: 2 µg/mL (≈ 2.86 µM); MIC [8]: 0.03 µg/mL (≈ 0.0429 µM); MIC [9]: < 0.008 µg/mL; MIC [10]: 0.015 µg/mL (≈ 0.0214 µM); MIC [11]: 16 µg/mL (≈ 22.9 µM); MIC [12]: 16 µg/mL (≈ 22.9 µM)
CC(C)(O/N=C(\C(=O)N[C@@H]1C(=O)N2C(C(=O)O)=C(CNC(=O)c3cc(O)c(O)c([N+](=O)[O-])c3)CS[C@H]12)c1csc(N)n1)C(=O)O	181.7 mg/h/L	2.9 h	5.5	dose excreted [4]: 47.3%; Activity [5]: 97.5%
CO/N=C(\C(=O)N[C@@H]1C(=O)N2C(C(=O)O)=C(COC(C)=O)CS[C@H]12)c1csc(N)n1 [CEFOTAXIME]	46.7 mg/h/L	0.5 h	–	–
CC(C)(O/N=C(\C(=O)N[C@@H]1C(=O)N2C(C(=O)O)=C(CNC(=O)Nc3cc(O)c(O)c(Br)c3)CS[C@H]12)c1csc(N)n1)C(=O)O	122.3 mg/h/L	2.8 h	–	–
CCO/N=C(\C(=O)N[C@@H]1C(=O)N2C(C(=O)O)=C(CNC(=O)c3cc(Cl)c(O)c(O)c3Cl)CS[C@H]12)c1csc(N)n1	54.5 mg/h/L	1.4 h	6.9	–
CC(C)(O/N=C(\C(=O)N[C@@H]1C(=O)N2C(C(=O)O)=C(CNC(=O)c3cc4ccc(O)c(O)c4oc3=O)CS[C@H]12)c1csc(N)n1)C(=O)O	243.9 mg/h/L	3.95 h	–	dose excreted [4]: 6.9%; Activity [5]: 99.6%
CCn1nc(C(=O)NCC2=C(C(=O)O)N3C(=O)[C@@H](NC(=O)/C(=N\OC(C)(C)C(=O)O)c4csc(N)n4)[C@H]3SC2)c(=O)c2cc(O)c(O)cc21	129.8 mg/h/L	2.2 h	6.5	dose excreted [4]: 26.9%; Activity [5]: 97.8%
CCO/N=C(\C(=O)N[C@@H]1C(=O)N2C(C(=O)O)=C(CNC(=O)c3cc(O)c(O)c(Br)c3)CS[C@H]12)c1csc(N)n1	17 mg/h/L	0.7 h	6.9	MIC [13]: < 0.008 µg/mL; MIC [7]: 8 µg/mL (≈ 12.5 µM); MIC [8]: 0.015 µg/mL (≈ 0.0234 µM); MIC [9]: 0.06 µg/mL (≈ 0.0935 µM); MIC [10]: 4 µg/mL (≈ 6.24 µM); MIC [11]: 2 µg/mL (≈ 3.12 µM); MIC [12]: 4 µg/mL (≈ 6.24 µM)
CC(C)(O/N=C(\C(=O)N[C@@H]1C(=O)N2C(C(=O)O)=C(CNC(=O)c3cc(O)c(O)c(O)c3)CS[C@H]12)c1csc(N)n1)C(=O)O	51.9 mg/h/L	0.9 h	8.35	MIC [9]: 0.9 µg/mL (≈ 1.41 µM); MIC [10]: 8.1 µg/mL (≈ 12.7 µM)
CCN(CC1=C(C(=O)O)N2C(=O)[C@@H](NC(=O)/C(=N\OC(C)(C)C(=O)O)c3csc(N)n3)[C@H]2SC1)C(=O)c1cc(O)c(O)c(F)c1	10.9 mg/h/L	0.5 h	7.85	–
CCN(CC1=C(C(=O)O)N2C(=O)[C@@H](NC(=O)/C(=N\OC(C)(C)C(=O)O)c3csc(N)n3)[C@H]2SC1)C(=O)c1cc(O)c(O)c(Br)c1	21.8 mg/h/L	1 h	7.3	MIC [13]: 0.015 µg/mL (≈ 0.0206 µM); MIC [14]: 0.015 µg/mL (≈ 0.0206 µM); MIC [7]: 1 µg/mL (≈ 1.37 µM); MIC [8]: 0.25 µg/mL (≈ 0.344 µM); MIC [9]: 0.03 µg/mL (≈ 0.0412 µM); MIC [10]: 0.06 µg/mL (≈ 0.0825 µM); MIC [11]: 32 µg/mL (≈ 44 µM); MIC [12]: 32 µg/mL (≈ 44 µM)
CCN(CC1=C(C(=O)O)N2C(=O)[C@@H](NC(=O)/C(=N\OC(C)(C)C(=O)O)c3csc(N)n3)[C@H]2SC1)C(=O)c1cc(O)c(O)c([N+](=O)[O-])c1	49.2 mg/h/L	1.6 h	5.8	–
CC(C)(O/N=C(\C(=O)N[C@@H]1C(=O)N2C(C(=O)O)=C(CNC(=O)Cc3cc(O)c(O)cc3Br)CS[C@H]12)c1csc(N)n1)C(=O)O	1.6 mg/h/L	–	–	–
CC(C)(O/N=C(\C(=O)N[C@@H]1C(=O)N2C(C(=O)O)=C(CNC(=O)c3cc(O)c(O)cc3F)CS[C@H]12)c1csc(N)n1)C(=O)O	78 mg/h/L	1.6 h	7.8	–

Structure (SMILES)	AUC [1]	half-life [2]	pKa [3]	further results
CCN(CC1=C(C(=O)O)N2C(=O)[C@@H](NC(=O)/C(=N\OC(C)(C)C(=O)O)c3csc(N)n3)[C@H]2SC1)C(=O)c1cc(O)c(O)c(Cl)c1	16.4 mg/h/L	0.9 h	7.4	–
CC(C)(O/N=C(\C(=O)N[C@@H]1C(=O)N2C(C(=O)O)=C(/C=C/c3cc(O)c(O)c(Br)c3)CS[C@H]12)c1csc(N)n1)C(=O)O	61.6 mg/h/L	1.5 h	7.7	–
CC(C)(O/N=C(\C(=O)N[C@@H]1C(=O)N2C(C(=O)O)=C(CNC(=O)c3cc(Cl)c(O)c(O)c3Cl)CS[C@H]12)c1csc(N)n1)C(=O)O	461 mg/h/L	8.2 h	6.3	dose excreted [4]: 16.2%; Activity [5]: 98.7%; ED50 [6]: 3 µg/kg
CC(C)(O/N=C(\C(=O)N[C@@H]1C(=O)N2C(C(=O)O)=C(CNC(=O)c3cc(O)c(O)cc3Br)CS[C@H]12)c1csc(N)n1)C(=O)O	13.4 mg/h/L	0.9 h	8.1	–
CC(C)(O/N=C(\C(=O)N[C@@H]1C(=O)N2C(C(=O)O)=C(COC(=O)c3cc(O)c(O)c(Br)c3)CS[C@H]12)c1csc(N)n1)C(=O)O	67.7 mg/h/L	1.7 h	6.5	–
CCO/N=C(\C(=O)N[C@@H]1C(=O)N2C(C(=O)O)=C(CNC(=O)c3cc(O)c(O)c(C#N)c3)CS[C@H]12)c1csc(N)n1	107 mg/h/L	1.2 h	5.5	–
CCO/N=C(\C(=O)N[C@@H]1C(=O)N2C(C(=O)O)=C(CNC(=O)c3cc(O)c(O)cc3Br)CS[C@H]12)c1csc(N)n1	2 mg/h/L	0.35 h	6.9	–
CCO/N=C(\C(=O)N[C@@H]1C(=O)N2C(C(=O)O)=C(CNC(=O)c3cc(O)c(O)c(F)c3)CS[C@H]12)c1csc(N)n1	25 mg/h/L	0.65 h	7.4	–
CCO/N=C(\C(=O)N[C@@H]1C(=O)N2C(C(=O)O)=C(CNC(=O)c3cc(O)c(O)c([N+](=O)[O-])c3)CS[C@H]12)c1csc(N)n1	48.9 mg/h/L	0.8 h	5.5	–
CCn1cc(C(=O)NCC2=C(C(=O)O)N3C(=O)[C@@H](NC(=O)/C(=N\OC(C)(C)C(=O)O)c4csc(N)n4)[C@H]3SC2)c(=O)c2c(Cl)c(O)c(O)cc21	645.7 mg/h/L	5.7 h	7	–
CC(C)(O/N=C(\C(=O)N[C@@H]1C(=O)N2C(C(=O)O)=C(CNC(=O)c3cc(O)c(O)c(C#N)c3)CS[C@H]12)c1csc(N)n1)C(=O)O	394.5 mg/h/L	5.3 h	5.5	dose excreted [4]: 8.7%; Activity [5]: 96.7%; ED50 [6]: 13 µg/kg
CCO/N=C(\C(=O)N[C@@H]1C(=O)N2C(C(=O)O)=C(CNC(=O)c3ccc(O)c(O)c3)CS[C@H]12)c1csc(N)n1	4.3 mg/h/L	0.8 h	8.5	MIC [13]: 0.06 µg/mL (≈ 0.107 µM); MIC [14]: 0.08 µg/mL (≈ 0.142 µM); MIC [7]: 64 µg/mL (≈ 114 µM); MIC [8]: 0.5 µg/mL (≈ 0.889 µM); MIC [9]: 0.25 µg/mL (≈ 0.444 µM); MIC [10]: 64 µg/mL (≈ 114 µM); MIC [11]: 2 µg/mL (≈ 3.56 µM); MIC [12]: 4 µg/mL (≈ 7.11 µM)
CC(C)(O/N=C(\C(=O)N[C@@H]1C(=O)N2C(C(=O)O)=C(CNC(=O)c3cc(O)c(O)c(F)c3)CS[C@H]12)c1csc(N)n1)C(=O)O	116.8 mg/h/L	3.5 h	7.45	–
CC(C)(O/N=C(\C(=O)N[C@@H]1C(=O)N2C(C(=O)O)=C(CNC(=O)c3cc(O)c(O)c(Cl)c3)CS[C@H]12)c1csc(N)n1)C(=O)O	638.3 mg/h/L	4.6 h	7	ED50 [6]: 4 µg/kg
CCO/N=C(\C(=O)N[C@@H]1C(=O)N2C(C(=O)O)=C(CNC(=O)c3cc(O)c(O)c(Cl)c3)CS[C@H]12)c1csc(N)n1	57.6 mg/h/L	1.3 h	6.9	–
CC(C)(O/N=C(\C(=O)N[C@@H]1C(=O)N2C(C(=O)O)=C(CNC(=O)/C=C/c3cc(O)c(O)cc3Br)CS[C@H]12)c1csc(N)n1)C(=O)O	24.2 mg/h/L	1 h	–	–
CCN(CC1=C(C(=O)O)N2C(=O)[C@@H](NC(=O)/C(=N\OC(C)(C)C(=O)O)c3csc(N)n3)[C@H]2SC1)C(=O)c1cc(O)c(O)cc1F	7.6 mg/h/L	0.6 h	8.25	–
CC(C)(O/N=C(\C(=O)N[C@@H]1C(=O)N2C(C(=O)O)=C(CNCc3cc(O)c(O)c(Br)c3)CS[C@H]12)c1csc(N)n1)C(=O)O	4.4 mg/h/L	0.7 h	–	–

From ChEMBL document CHEMBL1125482, “Pharmacokinetics of catechol cephalosporins. The effect of incorporating substituents into the catechol moiety on pharmacokinetics in a marmoset model” (J Med Chem, 1992)
